In PubChem BioAssay AID1963972 (Molecular Pharmacology Branch, DTP, NCI, 2024):

Tested on: 945468-187-T-J2-PDC spheroids viability
Assay: Anticancer human tumor 945468-187-T-J2-PDC patient-derived rectal carcinoma cell line growth inhibition [PI3K]
Conditions: spheroids with HUVEC and MSC; for IC50: curve of first compound; for viability, T/C: stronger effect = lower value
Method in brief: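 Targeted small molecules plus PI3K inhibitors, half-log dose series from Cmax (default top 10 microM), were applied to heterotypic spheroids of cancer cells with HUVEC and MSCs. Viability indicated growth inhibition.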
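Further: spheroids exposed to compounds for seven days before reading.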

- IC50 (second compound 0.0316 µM): 2.65 µM
- IC50 (second compound 0.1 µM): 2.14 µM
- IC50 (second compound 0.316 µM): > 10 µM
- IC50 (second compound 1 µM): > 10 µM
- IC50 (second compound 3.16 µM): 1.98 µM
- IC50 (second compound 10 µM): 2.32 µM
SMILES: CC1(C)CCC(Nc2ncc(C(F)(F)F)c(-c3c[nH]c4c(P(C)(C)=O)c(C#N)ccc34)n2)CN1 (configuration not stated) + Cc1nc(NC(=O)N2CCCC2C(N)=O)sc1-c1ccnc(C(C)(C)C(F)(F)F)c1
- viability, T/C (second compound 0.0316 µM, first compound 0.0316 µM): 95.8%
- viability, T/C (second compound 0.0316 µM, first compound 0.1 µM): 104%
- viability, T/C (second compound 0.0316 µM, first compound 0.316 µM): 78.4%
- viability, T/C (second compound 0.0316 µM, first compound 1 µM): 62.9%
- viability, T/C (second compound 0.0316 µM, first compound 3.16 µM): 47%
- viability, T/C (second compound 0.0316 µM, first compound 10 µM): 45.3%
- viability, T/C (second compound 0.1 µM, first compound 0.0316 µM): 87%
- viability, T/C (second compound 0.1 µM, first compound 0.1 µM): 85.4%
- viability, T/C (second compound 0.1 µM, first compound 0.316 µM): 93.2%
- viability, T/C (second compound 0.1 µM, first compound 1 µM): 55.2%
- viability, T/C (second compound 0.1 µM, first compound 3.16 µM): 53.1%
- viability, T/C (second compound 0.1 µM, first compound 10 µM): 41.6%
- viability, T/C (second compound 0.316 µM, first compound 0.0316 µM): 87.8%
- viability, T/C (second compound 0.316 µM, first compound 0.1 µM): 130%
- viability, T/C (second compound 0.316 µM, first compound 0.316 µM): 80.3%
- viability, T/C (second compound 0.316 µM, first compound 1 µM): 59.2%
- viability, T/C (second compound 0.316 µM, first compound 3.16 µM): 48.1%
- viability, T/C (second compound 0.316 µM, first compound 10 µM): 45.5%
- viability, T/C (second compound 1 µM, first compound 0.0316 µM): 89.8%
- viability, T/C (second compound 1 µM, first compound 0.1 µM): 99.3%
- viability, T/C (second compound 1 µM, first compound 0.316 µM): 91.4%
- viability, T/C (second compound 1 µM, first compound 1 µM): 53.8%
- viability, T/C (second compound 1 µM, first compound 3.16 µM): 48.5%
- viability, T/C (second compound 1 µM, first compound 10 µM): 55.3%
- viability, T/C (second compound 3.16 µM, first compound 0.0316 µM): 99.8%
- viability, T/C (second compound 3.16 µM, first compound 0.1 µM): 106%
- viability, T/C (second compound 3.16 µM, first compound 0.316 µM): 73.7%
- viability, T/C (second compound 3.16 µM, first compound 1 µM): 57%
- viability, T/C (second compound 3.16 µM, first compound 3.16 µM): 50.1%
- viability, T/C (second compound 3.16 µM, first compound 10 µM): 43.1%
- viability, T/C (second compound 10 µM, first compound 0.0316 µM): 81.8%
- viability, T/C (second compound 10 µM, first compound 0.1 µM): 77.5%
- viability, T/C (second compound 10 µM, first compound 0.316 µM): 48.9%
- viability, T/C (second compound 10 µM, first compound 1 µM): 53.7%
- viability, T/C (second compound 10 µM, first compound 3.16 µM): 60.2%
- viability, T/C (second compound 10 µM, first compound 10 µM): 39.4%
